The target in this assay is T1, Cathepsin K (Homo sapiens, UniProt P43235).
T1 construct: purchased Biovision K150-100
T1 sequence (P43235 115-329): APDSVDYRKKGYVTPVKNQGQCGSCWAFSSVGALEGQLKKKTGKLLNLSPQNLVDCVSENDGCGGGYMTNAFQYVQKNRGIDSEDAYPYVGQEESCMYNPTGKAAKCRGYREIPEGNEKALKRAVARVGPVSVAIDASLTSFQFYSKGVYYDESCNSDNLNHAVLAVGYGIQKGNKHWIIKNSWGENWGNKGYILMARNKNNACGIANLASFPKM
Put plainly: Preliminary screening of Cathepsin K (Cathepsin K Inhibitor Screening Kit K150-100, Biovision). Type of assay: biochemical. The following applies: relative inhibition rate vs 10 μM FF-FMK control; for Inhibition % (1 μM) replicate 1 / Inhibition % (1 μM) replicate 2 / inhibition at 1 µM: 1 μM compound; for Inhibition % (10 μM) replicate 1 / Inhibition % (10 μM) replicate 2 / inhibition at 10 µM: 10 μM compound. As for the experimental part: 1. Method for preliminary screening of Cathepsin K:
Preliminary screening of Cathepsin K was performed by using Cathepsin K Inhibitor Screening Kit (Product No. K150-100) from Biovision Company.
1.1.1 Preparation of Cathepsin K enzyme solution: Cathepsin K enzyme (40 μl) and Cathepsin K reagent (80 μl) were added to Cathepsin K buffer (3.88 ml), and were mixed well, to prepare Cathepsin K enzyme solution with a volume of 4 ml, which was placed on ice for further use.
1.1.2 Preparation of a compound solution: different compounds were separately weighed and dissolved in DMSO (methyl sulfoxide), to prepare solutions at a concentration of 30 mM as stock solutions, and for some insoluble compounds, they were prepared into solutions at a concentration of 10 mM as stock solutions; the 30 mM and 10 mM compound stock solutions were diluted to 1 mM and 100 μM DMSO solutions, respectively; 1 mM and 100 μM compound DMSO solutions (2 μl) were separately added to CTSK buffer (18 μl), to prepare compound solutions at a final concentration of 100 μM and 10 μM, respectively, wherein the concentration of DMSO was 10%.
1.1.3 Preparation of Cathepsin K substrate solution: Cathepsin K substrate (160 μl) was added to Cathepsin K buffer (3.44 ml), and mixed homogeneously, to prepare Cathepsin K substrate solution with a volume of 3.6 ml, which was placed on ice for further use.
1.2 Method for screening Cathepsin K inhibitor: Cathepsin K enzyme solution (prepared in Item 1.1.1) was added to a 384-well plate (ProxiPlate-384 Plus, Perkinelmer) at 10 μl/well, and centrifuged at 1000 rpm for 1 min; the compound solution (prepared in Item 1.1.2) was then added at 2 µl/well, and centrifuged at 1000 rpm for 1 min, and every concentration was repeated in two wells; the plate was placed in a 25° C. incubator for 15 min; Cathepsin K substrate solution was then added at 8 μl/well, and centrifuged at 1000 rpm for 1 min; and finally, the fluorescence signal was read in Enspire, wherein the exciting light was at a wavelength of 400 nm, the emitting light was at a wavelength of 505 nm, and continuous reading was performed at 37° C. for 120 min.
1.3 Data analysis: the slope (S) for all the samples was calculated by ΔRFU (RFU2−RFU1) and time ΔT (T2−T1), including negative control (Enzyme Control, EC) and positive control (Inhibitor Control, IC: 10 μM FF-FMK), and the calculation formula was as followed: Relative inhibition rate %=(SEC−SS)/(SEC−SIC)*100.

[1] abbreviates: replicate 1, read-out: Inhibition % (1 μM) replicate 1.
Setting [2] is: replicate 2, read-out: Inhibition % (1 μM) replicate 2.
[3] abbreviates: replicate 1, read-out: Inhibition % (10 μM) replicate 1.
Setting [4] is: replicate 2, read-out: Inhibition % (10 μM) replicate 2.

Like-named read-outs stand apart in the source and are kept apart here.

Take `CCOC(=O)[C@H]1O[C@@H]1C(=O)N[C@@H](CCSC)C(=O)NCCC(C)C` [Compound 1, (2s, 3s)-2-ethoxycarbonyl-3-[2-[(s)-4-methylthio-1-carbonyl-1-(isopentylamino)butane]formylamino]epoxysuccinic acid]: under “replicate 1”, the “Inhibition % (1 μM) replicate 1” value worked out at 17.79% and the “Inhibition % (10 μM) replicate 1” value was determined as 41.60%. For the same compound, where the note is “replicate 2”, the “Inhibition % (1 μM) replicate 2” value is 20.59% and the “Inhibition % (10 μM) replicate 2” value came out at 47.08%.

Usually inhibition stands for the change of the read-out against control, counted positive when it falls. As for `CCCCCNC(=O)[C@H](CCSC)NC(=O)[C@H]1O[C@@H]1C(=O)OCC` [Compound 2, (2s, 3s)-2-ethoxycarbonyl-3-[2-[(s)-4-methylthio-1-carbonyl-1-(pentylamino)butane]formylamino]epoxysuccinic acid], the inhibition at 1 µM reads like this: under setting [1], 28.6%; under setting [2], 33.2%. The inhibition at 10 µM by setting is: under setting [3], 59.5%; under setting [4], 60%.

As to `CCOC(=O)[C@H]1O[C@@H]1C(=O)N[C@@H](CCSC)C(=O)NCC(C)CC` (stereo partly shown) [Compound 3, (2s, 3s)-2-ethoxycarbonyl-3-[2-[(s)-4-methylthio-1-carbonyl-1-(2-methylbutylamino)butane]formylamino]epoxysuccinic acid], the inhibition at 1 µM came to 31% under setting [1] and 16.6% under setting [2]. In addition, the inhibition at 10 µM worked out at 42% under setting [3] and 36.7% under setting [4].

With `CCCNC(=O)[C@H](CCSC)NC(=O)[C@H]1O[C@@H]1C(=O)OCC` [Compound 4, (2s, 3s)-2-ethoxycarbonyl-3-[2-[(s)-4-methylthio-1-carbonyl-1-(propylamino)butane]formylamino]epoxysuccinic acid], the inhibition at 1 µM runs as follows: under setting [1], 15.6%; under setting [2], 23.6%. Moreover, the inhibition at 10 µM runs as follows: under setting [3], 31.6%; under setting [4], 34.9%.

Regarding `CCCC(C)NC(=O)[C@H](CCSC)NC(=O)[C@H]1O[C@@H]1C(=O)OCC` (stereo partly shown) [Compound 6, (2s, 3s)-2-ethoxycarbonyl-3-[2-[(s)-4-methylthio-1-carbonyl-1-(1-methylbutylamino)butane]formylamino]epoxysuccinic acid], the inhibition at 1 µM under setting [1] turned out to be 31.6% and the inhibition at 1 µM under setting [2] stood at 36.6%. Besides, the inhibition at 10 µM under setting [3] is 33% and the inhibition at 10 µM under setting [4] amounted to 39.1%.

On to `CCOC(=O)[C@H]1O[C@@H]1C(=O)N[C@@H](CCSC)C(=O)N1CCCC(C)C1` (stereo partly shown) [Compound 7, (2s, 3s)-2-ethoxycarbonyl-3-[2-[(s)-4-methylthio-1-carbonyl-1-(3-methylpiperidinyl)butane]formylamino]epoxysuccinic acid], for which the inhibition at 1 µM was 33% under setting [1] and -19.6% under setting [2]. Also, the inhibition at 10 µM was 37.4% under setting [3] and 28.4% under setting [4].

In the case of `CCOC(=O)[C@H]1O[C@@H]1C(=O)N[C@@H](CCSC)C(=O)NCC(C)C` [Compound 9, (2s, 3s)-2-ethoxycarbonyl-3-[2-[(s)-4-methylthio-1-carbonyl-1-(isobutylamino)butane]formylamino]epoxysuccinic acid], the inhibition at 1 µM stood at 25.6% under setting [1] and 18.1% under setting [2]. Also, the inhibition at 10 µM reads like this: under setting [3], 29.2%; under setting [4], 28.8%.

On to `CCOC(=O)[C@H]1O[C@@H]1C(=O)N[C@@H](CCSC)C(=O)NCCc1ccc(OC)cc1` [Compound 10, (2s, 3s)-2-ethoxycarbonyl-3-[2-[(s)-4-methylthio-1-carbonyl-1-(4-methoxyphenylethylamino)butane]formylamino]epoxysuccinic acid], for which the inhibition at 1 µM turned out to be 33.1% under setting [1] and 35.8% under setting [2]. The inhibition at 10 µM worked out at 80.2% under setting [3] and 66.5% under setting [4].

`CCOC(=O)[C@H]1O[C@@H]1C(=O)N[C@@H](CCSC)C(=O)N1CCCC1` [Compound 11, (2s, 3s)-2-ethoxycarbonyl-3-[2-[(s)-4-methylthio-1-carbonyl-1-(tetrahydropyrrolyl)butane]formylamino]epoxysuccinic acid]: the inhibition at 1 µM runs as follows: under setting [1], 15.3%; under setting [2], -7.42%. Further, the inhibition at 10 µM was 32% under setting [3] and 15.2% under setting [4].

Consider `CCOC(=O)[C@H]1O[C@@H]1C(=O)N[C@@H](CCSC)C(=O)N1CCOCC1` [Compound 12, (2s, 3s)-2-ethoxycarbonyl-3-[2-[(s)-4-methylthio-1-carbonyl-1-(morpholinyl)butane]formylamino]epoxysuccinic id], for which the inhibition at 1 µM under setting [1] came to 15.4% and the inhibition at 1 µM under setting [2] came out at 26.6%. The inhibition at 10 µM is, setting by setting: under setting [3], 44%; under setting [4], 51.7%.

Consider `CCOC(=O)[C@H]1O[C@@H]1C(=O)N[C@H](CSCc1ccccc1)C(=O)NCC(C)CC` (stereo partly shown) [Compound 14, (2s, 3s)-2-ethoxycarbonyl-3-[2-[(s)-3-benzylthio-1-carbonyl-1-(2-methylbutylamino)propane]formylamino]epoxysuccinic acid], for which, where the note is “replicate 1”, the “Inhibition % (1 μM) replicate 1” value is 31.16% and the “Inhibition % (10 μM) replicate 1” value worked out at 42.39%. Also, where the note is “replicate 2”, the “Inhibition % (1 μM) replicate 2” value was −7.18% and the “Inhibition % (10 μM) replicate 2” value is 41.33%.

As for `CCOC(=O)[C@H]1O[C@@H]1C(=O)N[C@@H](CSCc1ccccc1)C(=O)NCC(C)(C)C` [Compound 15, (2s, 3s)-2-ethoxycarbonyl-3-[2-[(s)-3-benzylthio-1-carbonyl-1-(neopentylamino)propane]formylamino]epoxysuccinic acid], the inhibition at 1 µM came to 28.1% under setting [1] and 35.6% under setting [2]. Further, the inhibition at 10 µM is 50.1% under setting [3] and 48.6% under setting [4].

`CCOC(=O)[C@H]1O[C@@H]1C(=O)N[C@@H](CSCc1ccccc1)C(=O)NC(C)(C)CC` [Compound 16, (2s, 3s)-2-ethoxycarbonyl-3-[2-[(s)-3-benzylthio-1-carbonyl-1-(tert-pentylamino)propane]formylamino]epoxysuccinic acid]: the inhibition at 1 µM by setting is: under setting [1], 38.9%; under setting [2], 39.2%. Further, the inhibition at 10 µM under setting [3] worked out at 60.8% and the inhibition at 10 µM under setting [4] was 63.6%.

For `CCCNC(=O)[C@H](CSCc1ccccc1)NC(=O)[C@H]1O[C@@H]1C(=O)OCC` [Compound 17, (2s, 3s)-2-ethoxycarbonyl-3-[2-[(s)-3-benzylthio-1-carbonyl-1-(propylamino)propane]formylamino]epoxysuccinic acid], the inhibition at 1 µM is, setting by setting: under setting [1], 26.9%; under setting [2], 32.2%. For the same compound, the inhibition at 10 µM under setting [3] was 34.8% and the inhibition at 10 µM under setting [4] was 31.7%.

As for `CCCCCCNC(=O)[C@H](CSCc1ccccc1)NC(=O)[C@H]1O[C@@H]1C(=O)OCC` [Compound 18, (2s, 3s)-2-ethoxycarbonyl-3-[2-[(s)-3-benzylthio-1-carbonyl-1-(hexylamino)propane]formylamino]epoxysuccinic acid], the inhibition at 1 µM was 23.5% under setting [1] and 32.7% under setting [2]. Moreover, the inhibition at 10 µM reads like this: under setting [3], 56.1%; under setting [4], 48.2%.

Turning to `CCOC(=O)[C@H]1O[C@@H]1C(=O)N[C@@H](CSCc1ccccc1)C(=O)NC(C)CC` (stereo partly shown) [Compound 19, (2s, 3s)-2-ethoxycarbonyl-3-[2-[(s)-3-benzylthio-1-carbonyl-1-(1-methylpropylamino)propane]formylamino]epoxysuccinic acid], the inhibition at 1 µM turned out to be 32% under setting [1] and 20.4% under setting [2]. The inhibition at 10 µM is 33.5% under setting [3] and 27.9% under setting [4].
